For this data set the following is noted: fresh human skin with dermis, control/VAP gel and RAMEB/VAP gel, contact time 24 hours.

Method: The study is carried out using the Franz cells characterized above.
After a contact time of 24 hours, the excess gel on the surface of the skin is washed off with the aid of cotton buds.
The cotton buds together with the upper part of the cell are immersed in 10 ml of isopropanol and ultrasonicated for 15 minutes and then stirred for 2 hours.
The solutions are diluted to 1/10 and filtered on a 0.2 μm filter before assaying.
The stratum corneum is collected by 7 successive strippings (pressure 300 g/cm^2, duration 12 s). The VAP is extracted by solubilization in 2 ml of methanol overnight at 4° C., followed by stirring for 2 hours and finally filtration on a 0.2 μm filter before assaying.
With the stratum corneum removed, the epidermis is separated from the dermis with the aid of a scalpel.
The VAP is extracted from the epidermis by solubilization of the latter in 1 ml of methanol overnight at 4° C., followed by stirring for 2 hours and finally filtration on a 0.2 μm filter before assaying.
The VAP assays are performed by HPLC.

With `CCC(=O)OC/C=C(C)/C=C/C=C(C)/C=C/C1=C(C)CCCC1(C)C` [VAP, vitamin A propionate], the “VAP detected in the reception liquid” value was “No trace”.

The values are drawn from patent US20050085444A1, “Cosmetic or dermatological use of vitamin a or the esters thereof in combination with a partly methylated beta-cyclodextrin” (priority 2002, published 2005).
